Reference: paper PMC4151564 (Journal of medicinal chemistry, 2011)

Key:
[1] = biological target: T1, eukaryotic topoisomerase IIα (Homo sapiens, UniProt P11388); assay: Gel-based Topo-IIα inhibition mechanism assay; format: biochemical; conditions: 500 μM inhibitor, 4 units enzyme
[2] = biological target: T1, eukaryotic topoisomerase IIα; conditions: read-out: Topo-IIα inhibition IC50; literature range; cited from earlier work
[3] = biological target: T1, eukaryotic topoisomerase IIα; assay: Topo-IIα inhibition, agarose gel supercoiled DNA relaxation assay; format: biochemical; conditions: for Topo-IIα inhibition at 100 μM: 100 μM TSC ligand, gel Figure 1B
Topo-IIα = conditions: cited from earlier work

T1 sequence (P11388 whole entry): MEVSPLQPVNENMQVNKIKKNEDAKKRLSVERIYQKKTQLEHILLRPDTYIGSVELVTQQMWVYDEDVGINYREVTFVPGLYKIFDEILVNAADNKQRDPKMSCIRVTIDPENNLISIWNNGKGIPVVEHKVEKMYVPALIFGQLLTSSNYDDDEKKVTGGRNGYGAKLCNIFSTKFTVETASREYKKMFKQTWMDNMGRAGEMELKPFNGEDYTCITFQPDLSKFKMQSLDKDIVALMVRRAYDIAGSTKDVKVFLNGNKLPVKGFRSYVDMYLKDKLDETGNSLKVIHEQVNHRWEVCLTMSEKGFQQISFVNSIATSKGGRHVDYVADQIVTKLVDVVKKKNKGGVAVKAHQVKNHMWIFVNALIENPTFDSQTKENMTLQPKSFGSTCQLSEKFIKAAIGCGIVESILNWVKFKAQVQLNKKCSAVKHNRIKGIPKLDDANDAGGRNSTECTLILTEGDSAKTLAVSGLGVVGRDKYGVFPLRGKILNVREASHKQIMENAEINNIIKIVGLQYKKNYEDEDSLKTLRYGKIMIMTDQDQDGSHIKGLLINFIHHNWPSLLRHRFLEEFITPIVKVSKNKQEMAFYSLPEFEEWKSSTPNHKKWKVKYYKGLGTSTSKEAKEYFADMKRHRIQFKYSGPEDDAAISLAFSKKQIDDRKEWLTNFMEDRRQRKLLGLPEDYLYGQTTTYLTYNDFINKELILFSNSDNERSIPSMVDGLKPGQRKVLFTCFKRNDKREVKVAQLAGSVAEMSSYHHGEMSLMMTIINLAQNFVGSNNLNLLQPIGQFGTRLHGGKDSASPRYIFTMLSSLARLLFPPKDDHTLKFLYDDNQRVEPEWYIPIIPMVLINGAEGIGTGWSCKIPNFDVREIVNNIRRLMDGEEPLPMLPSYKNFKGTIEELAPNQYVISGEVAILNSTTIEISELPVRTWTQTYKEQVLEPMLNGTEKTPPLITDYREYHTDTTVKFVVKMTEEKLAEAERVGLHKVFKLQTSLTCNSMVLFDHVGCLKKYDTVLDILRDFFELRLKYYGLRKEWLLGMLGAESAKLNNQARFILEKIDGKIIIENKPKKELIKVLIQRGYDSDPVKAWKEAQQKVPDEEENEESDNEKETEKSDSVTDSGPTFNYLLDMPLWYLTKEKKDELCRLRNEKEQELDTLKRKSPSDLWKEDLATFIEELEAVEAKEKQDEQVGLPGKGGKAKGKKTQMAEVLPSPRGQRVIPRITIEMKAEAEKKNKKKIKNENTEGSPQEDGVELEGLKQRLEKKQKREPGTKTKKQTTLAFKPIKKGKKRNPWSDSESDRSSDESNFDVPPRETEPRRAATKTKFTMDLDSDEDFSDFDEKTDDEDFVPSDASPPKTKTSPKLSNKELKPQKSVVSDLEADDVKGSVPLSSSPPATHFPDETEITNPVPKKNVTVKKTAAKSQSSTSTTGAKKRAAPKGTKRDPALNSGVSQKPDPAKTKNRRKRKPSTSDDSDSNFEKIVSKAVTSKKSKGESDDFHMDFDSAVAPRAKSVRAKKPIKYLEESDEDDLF

| Molecule | Topo-IIα inhibition mechanism (formation of linear DNA) [1] | Topo-IIα inhibition at 100 μM [3] | further results |
| --- | --- | --- | --- |
| COc1cc(NS(C)(=O)=O)ccc1Nc1c2ccccc2nc2ccccc12 [m-AMSA] | produce discrete bands of linear DNA | – | – |
| O=C1NC(=S)NC(=O)C1C(=O)Nc1ccccc1 [merbarone] | – | – | IC50 [2]: 40 to 50 µM |
| CCNC(=S)N/N=C/c1ccccn1 [HFp4eT, (E)-N-Ethyl-2-(pyridin-2-ylmethylene)hydrazinecarbothioamide] | – | displaying any degree of inhibition | – |
| 2-Formylpyridine-N^4-allylthiosemicarbazonatochlorocopper (II) [Cu(Fp4alT)Cl] | completely inhibits Topo-IIα without promoting the formation of linear DNA products | – | – |
| CCNC(=S)N/N=C(\C)c1ccccn1 [HAp4eT, (E)-N-Ethyl-2-(1-(pyridin-2-yl)ethylidene)hydrazinecarbothioamide] | – | displaying any degree of inhibition | – |
| CNC(=S)N/N=C/c1ccccn1 [HFp4mT, (E)-N-Methyl-2-(pyridin-2-ylmethylene) hydrazinecarbothioamide] | – | displaying any degree of inhibition | – |
| Cc1c2ccncc2c(C)c2c1[nH]c1ccccc12 [ellipticine] | produce discrete bands of linear DNA | – | – |
| COc1cccc2c1C(=O)c1c(O)c3c(c(O)c1C2=O)C[C@@](O)(C(=O)CO)C[C@@H]3O[C@H]1C[C@H](N)[C@H](O)[C@H](C)O1 [doxorubicin] | – | – | IC50 [2]: 1 to 5 µM |
| [Cl][Cu][Cl] [CuCl2] | – | – | Topo-IIα inhibition, control experiment ([3]; any concentrations below 500 μM): does not inhibit the enzyme |
| CN(C)C(=S)NN=C(c1ccccn1)c1ccccn1 [Dp44mT, di-2-pyridylketone-4,4-dimethylthiosemicarbazone] | – | – | concentration at which in vivo Topo-IIα inhibition was found (Topo-IIα): < 1 µM |
| CNC(=S)N/N=C(\C)c1ccccn1 [HAp4mT, (E)-N-Methyl-2-(1-(pyridin-2-yl)ethylidene)hydrazinecarbothioamide] | – | displaying any degree of inhibition | – |
| O=c1c(-c2ccc(O)cc2)coc2cc(O)cc(O)c12 [genistein] | produce discrete bands of linear DNA | – | – |
